According to patent US20140107100A1, “Benzoxazepines as Inhibitors of PI3K/mTOR and Methods of Their Use and Manufacture” (EXELIXIS, INC., priority 2010, published 2014):

target: mTOR/GbL/Raptor (mTORC1) (Homo sapiens, UniProt P42345); experiment: mTOR/GbL/Raptor (mTORC1) ELISA assay, phosphorylation of 4E-BP1; assay type: biochemical; details: 0.2 nM mTORC1, 40 uM ATP, 50 nM NHis-tagged 4E-BP1, 120 minutes; read-out: IC50 in this assay (mTORC1 ELISA)
Experimental: The measurement of mTORC1 enzyme activity was performed in an ELISA assay format following the phosphorylation of 4E-BP1 protein. All experiments were performed in the 384-well format. Generally, 0.5 μL DMSO containing varying concentrations of the test Compound was mixed with 15 μL enzyme solution. Kinase reactions were initiated with the addition of 15 μL of substrates-containing solution. The assay conditions were-as follows; 0.2 nM mTORC1, 40 uM ATPand 50 nM NHis-tagged4E-BP1 in20 mM Hepes, pH 7.2, 1 mM DTT, 50 mMNaC1, 10 mM MnC12, 0.02 mg/mL BSA, 0.01% CHAPS, 50 mM β-glycerophosphate. Following an incubation of 120 minutes at anibient temperature, 20 μL of the reaction volume was transferred to a Ni-Chelate-coated 384-well plate. The binding step of the 4E-BP1 protein proceeded for 60 minutes, followed by washing 4 times each with 50 uL of Tris-buffered saline solution (TBS). Anti-phospho-4E-BPl rabbit-IgG ([…]. 1:5000) in 5% BSA-TBST (0.2% Tween-20 in TBS) was added and further incubated for 60 minutes. Incubation with a secondary HRP-tagged anti-IgG was similarly performed after washing off the primary antibody (4 washes of 50 μL). Following the final wash step with TBST, 20 μL of SuperSignal ELISA Femto (Pierce Biotechnology) was added and the luminescence measured using an En Vision plate reader.

Row | Compound | IC50
1 | COc1cc(-c2cnc3sc(N)nc3c2)cc2c1OCCN(c1nc(CN(C)C)nc(C)c1C(C)C)C2 [Compound 157, 6-[4-{2-[(dimethylamino)methyl]-6-methyl-5-(1-methylethyl)pyrimidin-4-yl}-9-(methyloxy)-2,3,4,5-tetrahydro-1,4-benzoxazepin-7-yl][1,3]thiazolo[5,4-b]pyridin-2-amine] | 100 to 500 nM
2 | CCc1nc(CN(C)C)nc(N2CCOc3c(C)cc(-c4cnc5sc(N)nc5c4)cc3C2)c1CC [Compound 85, 6-(4-{2-[(dimethylamino)methyl]-5,6-diethylpyrimidin-4-yl}-9-methyl-2,3,4,5-tetrahydro-1,4-benzoxazepin-7-yl)[1,3]thiazolo[5,4-b]pyridin-2-amine] | ≤ 100 nM
3 | Cc1cc(-c2cnc3sc(N)nc3c2)cc2c1OCCN(c1nc(CNCCF)nc(C)c1C(C)C)C2 [Compound 126, 6-{4-[2-{[(2-fluoroethyl)amino]methyl}-6-methyl-5-(1-methylethyl)pyrimidin-4-yl]-9-methyl-2,3,4,5-tetrahydro-1,4-benzoxazepin-7-yl}[1,3]thiazolo[5,4-b]pyridin-2-amine] | ≤ 100 nM
4 | COCCOc1nc(C)c(C(C)C)c(N2CCOc3c(C)cc(-c4cnc5sc(N)nc5c4)cc3C2)n1 [Compound 154, 6-{9-methyl-4-[6-methyl-5-(1-methylethyl)-2-{[2-(methyloxy)ethyl]oxy}pyrimidin-4-yl]-2,3,4,5-tetrahydro-1,4-benzoxazepin-7-yl}[1,3]thiazolo[5,4-b]pyridin-2-amine] | ≤ 100 nM
5 | Cc1cc(-c2cnc3sc(N)nc3c2)cc2c1OCCN(c1ncncc1C(C)C)C2 [Compound 116, 6-{9-methyl-4-[5-(1-methylethyl)pyrimidin-4-yl]-2,3,4,5-tetrahydro-1,4-benzoxazepin-7-yl}[1,3]thiazolo[5,4-b]pyridin-2-amine] | ≤ 100 nM
6 | Cc1cc(-c2cnc3sc(N)nc3c2)cc2c1OCCN(c1nc(N)nc(C)c1CC1CC1)C2 [Compound 46, 6-{4-[2-amino-5-(cyclopropylmethyl)-6-methylpyrimidin-4-yl]-9-methyl-2,3,4,5-tetrahydro-1,4-benzoxazepin-7-yl}[1,3]thiazolo[5,4-b]pyridin-2-amine] | ≤ 100 nM
7 | Cc1cc(-c2cnc3sc(N)nc3c2)cc2c1OCCN(c1nc([S+](C)[O-])nc(C)c1C(C)C)C2 (centres unmarked) [Compound 99, 6-{9-methyl-4-[6-methyl-5-(1-methylethyl)-2-(methylsulfinyl)pyrimidin-4-yl]-2,3,4,5-tetrahydro-1,4-benzoxazepin-7-yl}[1,3]thiazolo[5,4-b]pyridin-2-amine] | ≤ 100 nM
8 | CC(=O)NCc1nc(C)c(C(C)C)c(N2CCOc3c(C)cc(-c4cnc5sc(N)nc5c4)cc3C2)n1 [Compound 119, N-({4-[7-(2-amino[1,3]thiazolo[5,4-b]pyridin-6-yl)-9-methyl-2,3-dihydro-1,4-benzoxazepin-4(5H)-yl]-6-methyl-5-(1-methylethyl)pyrimidin-2-yl}methyl)acetamide] | ≤ 100 nM
9 | COCCc1c(C)nc(CN2CCCC2)nc1N1CCOc2c(C)cc(-c3cnc4sc(N)nc4c3)cc2C1 [Compound 127, 6-(9-methyl-4-{6-methyl-5-[2-(methyloxy)ethyl]-2-(pyrrolidin-1-ylmethyl)pyrimidin-4-yl}-2,3,4,5-tetrahydro-1,4-benzoxazepin-7-yl)[1,3]thiazolo[5,4-b]pyridin-2-amine] | ≤ 100 nM
10 | Cc1cc(-c2cnc(Cl)c(NS(C)(=O)=O)c2)cc2c1OCCN(c1nc(N)ncc1C(F)(F)F)C2 [Compound 14, N-(5-{4-[2-amino-5-(trifluoromethyl)pyrimidin-4-yl]-9-methyl-2,3,4,5-tetrahydro-1,4-benzoxazepin-7-yl}-2-chloropyridin-3-yl)methanesulfonamide] | ≤ 100 nM
11 | Cc1cc(-c2cnc3sc(N)nc3c2)cc2c1OCCN(c1nc(CN(C)C)nc(Cl)c1C(C)C)C2 [Compound 63, 6-(4-{6-chloro-2-[(dimethylamino)methyl]-5-(1-methylethyl)pyrimidin-4-yl}-9-methyl-2,3,4,5-tetrahydro-1,4-benzoxazepin-7-yl)[1,3]thiazolo[5,4-b]pyridin-2-amine] | ≤ 100 nM
12 | Cc1cc(-c2cnc3sc(N)nc3c2)cc2c1OCCN(c1nc(N)nc3c1CC(C)(C)CC3)C2 [Compound 10, 4-[7-(2-amino[1,3]thiazolo[5,4-b]pyridin-6-yl)-9-methyl-2,3-dihydro-1,4-benzoxazepin-4(5H)-yl]-6,6-dimethyl-5,6,7,8-tetrahydroquinazolin-2-amine] | ≤ 100 nM
13 | COCCc1c(C)nc(C)nc1N1CCOc2c(C)cc(-c3cnc4sc(N)nc4c3)cc2C1 [Compound 132, 6-(4-{2,6-dimethyl-5-[2-(methyloxy)ethyl]pyrimidin-4-yl}-9-methyl-2,3,4,5-tetrahydro-1,4-benzoxazepin-7-yl)[1,3]thiazolo[5,4-b]pyridin-2-amine] | ≤ 100 nM
14 | C=C(C)c1c(C)ncnc1N1CCOc2c(C)cc(-c3cnc4sc(N)nc4c3)cc2C1 [Compound 124, 6-{9-methyl-4-[6-methyl-5-(1-methylethenyl)pyrimidin-4-yl]-2,3,4,5-tetrahydro-1,4-benzoxazepin-7-yl}[1,3]thiazolo[5,4-b]pyridin-2-amine] | ≤ 100 nM
15 | Cc1cnccc1N1CCOc2c(C)cc(-c3cnc4sc(N)nc4c3)cc2C1 [Compound 48, 6-[9-methyl-4-(3-methylpyridin-4-yl)-2,3,4,5-tetrahydro-1,4-benzoxazepin-7-yl][1,3]thiazolo[5,4-b]pyridin-2-amine] | 100 to 500 nM
16 | Cc1nc2ccc(-c3cc(C)c4c(c3)CN(c3nc(CN(C)C)nc(C)c3C(C)C)CCO4)cc2[nH]1 [Compound 45, N,N-dimethyl-1-{4-methyl-5-(1-methylethyl)-6-[9-methyl-7-(2-methyl-1H-benzimidazol-6-yl)-2,3-dihydro-1,4-benzoxazepin-4(5H)-yl]pyrimidin-2-yl}methanamine] | 100 to 500 nM
17 | Cc1cc(-c2cnc3sc(N)nc3c2)cc2c1OCCN(c1nc([C@@H]3CC(F)(F)CN3)nc(C)c1C(C)C)C2 [Compound 147, 6-(4-{2-[(2S)-4,4-difluoropyrrolidin-2-yl]-6-methyl-5-(1-methylethyl)pyrimidin-4-yl}-9-methyl-2,3,4,5-tetrahydro-1,4-benzoxazepin-7-yl)[1,3]thiazolo[5,4-b]pyridin-2-amine] | ≤ 100 nM
18 | Cc1cc(-c2cnc(Cl)c(NS(C)(=O)=O)c2)cc2c1OCCN(c1ncc(C(F)(F)F)c(N)n1)C2 [Compound 15, N-(5-{4-[4-amino-5-(trifluoromethyl)pyrimidin-2-yl]-9-methyl-2,3,4,5-tetrahydro-1,4-benzoxazepin-7-yl}-2-chloropyridin-3-yl)methanesulfonamide] | 100 to 500 nM
19 | Cc1cc(-c2cnc3sc(N)nc3c2)cc2c1OCCN(c1nc(CN(C)C)nc(C)c1C(C)C)C2 [Compound 31, 6-(4-{2-[(dimethylamino)methyl]-6-methyl-5-(1-methylethyl)pyrimidin-4-yl}-9-methyl-2,3,4,5-tetrahydro-1,4-benzoxazepin-7-yl)[1,3]thiazolo[5,4-b]pyridin-2-amine] | ≤ 100 nM
20 | COCc1c(C)nc(C)nc1N1CCOc2c(C)cc(-c3cnc4sc(N)nc4c3)cc2C1 [Compound 143, 6-(4-{2,6-dimethyl-5-[(methyloxy)methyl]pyrimidin-4-yl}-9-methyl-2,3,4,5-tetrahydro-1,4-benzoxazepin-7-yl)[1,3]thiazolo[5,4-b]pyridin-2-amine] | ≤ 100 nM
